This is an account of results in US11291693B2, “Bacteria engineered to treat metabolic diseases” (Synlogic Operating Company, Inc., priority 2015, dated 2022).

Data set [1] deals with dipeptidyl peptidase IV (DPP-IV). Conditions: cited from earlier work; for resistance to DPPIV mediated degradation / cleavage: short description of a known GLP-1R agonist in Table 10, in words.
Data set [2] deals with rat intestinal epithelial cells. The note with it: cited from earlier work.
Data set [3] has as its system Ptet-GFP reporter construct. As to the kind of experiment: ATC-inducible GFP reporter assay, fluorescence plate reader. In kind it is cell-based, E. coli Nissle. The note with it: two-fold decreased inducer across a range of concentrations; relative florescence units; FIG. 28. For orientation: Reporter assays use an easily measured gene product as a stand-in for the process of interest.

The test system of data set [4] is PnsrR-GFP reporter construct. The data set is described as follows: Nitric oxide-inducible GFP reporter assay, fluorescence plate reader. In kind it is cell-based, E. coli Nissle. The note with it: NO donor DETA-NO, two-fold decreased across a range of concentrations; relative florescence units; FIG. 28.

In the case of Dulaglutide, the “resistance to DPPIV mediated degradation / cleavage” value in data set [1] was “protection from DPPIV”. Turning to “GLP-1: glucagon-like peptide 1, produced by intestinal cells”, the stability in data set [1] (rapid degradation catalyzed by DPP-IV) is 3 to 5 min. For the molecule “GLP-1(1-37): full-length form of GLP-1, SEQ ID NO: 73 (HDEFERHAEGTFTSDVSSYLEGQAAKEFIAWLVKGRG)”, the “effect on intestinal epithelial cells” value in data set [2] is “stimulate rat intestinal epithelial cells to become glucose-responsive insulin-secreting cells”. For the molecule anhydrous tetracycline [ATC], the “induction of GFP expression in Ptet-GFP reporter construct” value in data set [3] was “able to induce the expression of GFP”. For the molecule Taspoglutide, in data set [1], the “resistance to DPPIV mediated degradation / cleavage” value is reported as “avoid degradation by DPPIV,”. Turning to `NCCN(CCN)/[N+]([O-])=N/O` [NO, diethylenetriamine-nitric oxide adduct], the “induction of GFP expression in PnsrR-GFP reporter construct” value in data set [4] is listed as “able to induce the expression of GFP”. Consider “GLP-1(7-37): circulating active form of GLP-1, SEQ ID NO: 75”, for which the “biological half-life in blood” value in data set [1] (blood) was “a few minutes”.
